≈ marks a conversion by molar mass, not a printed value. Positions of bridges follow the written chain, without caps; N, C: chain ends. Non-standard residues stand in square brackets, D forms with d. Residues, ends and D or L forms follow the SMILES beside them. *: point of attachment. Myristoyl = CCCCCCCCCCCCCC(=O)*; dDab = NCC[C@@H](N)C(=O)O; Dab = NCC[C@H](N)C(=O)O
Key:
[1] = system: S. aureus; assay: Direct plating of S. aureus on cilagicin-containing agar plates (resistant colonies); format: cell-based, Staphylococcus aureus; details: plating S. aureus directly on cilagicin-containing agar plates
[2] = system: S. aureus USA300; assay: Time-dependent killing assay; format: cell-based, Staphylococcus aureus; details: S. aureus USA300, 10x the MIC
Description: An overnight culture of S. aureus USA300 was diluted 1:10,000 in 50 mL fresh LB and incubated at 37° C. with aeration at 220 rpm for 2 hours. Bacteria (3 mL) were challenged with 10× the MIC of each antibiotic (10 μg/mL cilagicin, 10 μg/mL vancomycin). After 1.25, 4, 8, 16 and 24 hours 200 μL aliquots of cells were collected, centrifuged at 10,000×g for 1 minute and then resuspended in 200 μL of sterile PBS (pH 7.4). 50 μL aliquots of 10-fold serial dilutions were plated on LB agar plates. After overnight growth at 37° C., colonies were counted. Experiments were performed three independent times (n=3).

[3] = mice, intraperitoneal (IP) injection
[4] = system: S. aureus USA300; assay: Resistance studies (daily serial passage at sub-MIC); format: cell-based, Staphylococcus aureus
Description: A single colony of S. aureus USA300 was inoculated in 5 mL LB broth and grown overnight at 37° C. with continuous shaking (200 rpm). The overnight culture was then diluted 1:5,000 into fresh LB. 50 μL aliquots of dilute cells were transferred into individual wells of 96-well plates containing 50 μL of serially diluted cilagicin, amphomycin (AG Scientific, USA) or bacitracin (Sigma, USA). Plates were statically incubated at 37° C. After 24 hours, the MIC was recorded. […] The MIC was determined as described above. This process was repeated daily for 25 days. For bacitracin, the LB medium was supplemented with 50 μg/mL ZnCl2. For amphomycin, the medium was supplemented with 100 μg/mL CaCl2-2H2O. Experiments were performed three independent times (n=3).

[5] = system: S. aureus USA300; assay: Cell lysis assay (SYTOX green); format: cell-based, Staphylococcus aureus; details: S. aureus exposed to 8-fold MIC
Description: Cell lytic activity of cilagicin was evaluated using SYTOX green nucleic acid stain (Thermo Fisher, USA). Gramicidin and DMSO were used as positive and negative controls, respectively. S. aureus USA300 was grown overnight at 37° C. with shaking (200 rpm) and then diluted in fresh LB broth to an OD600nm of 0.35. 900 μL of this S. aureus USA300 suspension was mixed with 100 μL of SYTOX (17 μM in DMSO). The mixture was incubated at room temperature for 5 minutes, and then transferred into a 384-well flat bottom black microtiter plate (30 μL/well). The initial fluorescence intensity of each well was recorded using an infinite 200 PRO (Excitation/Emission=488/523 nm) at 9 second intervals for 5 minutes. […] The fluorescence intensity of each well was then continually monitored at 9 second intervals for 25 minutes and plotted by Prism 9.0. All assays were performed in biological triplicates (n=3).

[6] = system: S. aureus USA300; assay: Membrane depolarization assay (DiSC3(5)); format: cell-based, Staphylococcus aureus; details: S. aureus exposed to 8-fold MIC
Description: The effect of cilagicin on membrane depolarization was analyzed using DiSC3(5) dye (Thermo Fisher, USA). Overnight cultures of S. aureus USA300 were harvested and resuspended in PBS (OD600 nm=0.37). Cell suspension (1 mL) and 10 μL of 4 μM DisC3(5) were pre-mixed and incubated in the dark at room temperature for 15 minutes. 50 μL of this mixture was then added to each well of black 96-well flat bottom black microtiter plates. The initial fluorescence intensity of each well was recorded using an infinite 200 PRO (Excitation/Emission=620/670 nm) at 9 second intervals for 15 minutes. 50 μL of a 1 μM solution of each test compound was then added to each well. Gramicidin (30 μM) and melittin (1 μM) were used as positive controls. DMSO was used as the vehicle control. The fluorescence intensity of each well was then monitored at 9 second intervals for another 15 minutes and plotted by Prism 9.0. All assays were performed in biological triplicate (n=3).

[7] = system: Enterococcus casseliflavus; format: cell-based
Description: (§1) MIC assay were conducted using the protocol recommended by the Clinical and Laboratory Standards Institute.(37) Culture conditions (temperature, medium) are detailed in Table 3. All compounds were dissolved in sterile DMSO (ATCC, USA) to give a concentration of 6.4 mg/mL. Vancomycin hydrochloride was used as positive controls. Tested compounds were serially diluted across 96-well plates using a 2-fold serial dilution in a volume of 50 μL. An overnight culture of an assay strain was diluted 5,000-fold in fresh medium. 50 μL of this dilution was added into each well, giving a final volume of 100 μL in each well. Compounds were assayed at concentrations ranging from 64 μg/mL to 0.06 μg/mL. The top and bottom rows of each plate were filled with 100 μL of media to avoid edge effects. […] For Clostridium difficile plates were statically incubated under anaerobic conditions (Vinyl anaerobic chamber, 37° C., 5% H2, 5% CO2, 90% N2). For Streptococcus pneumoniae plates were statically incubated under aerobic conditions supplemented with 5% C02 (37° C.). All MICs were performed in technical duplicate (n=2) and repeated three independent times (n=3).

[8] = system: Enterococcus gallinarum; format: cell-based
Description: as §1

[9] = system: Staphylococcus aureus; format: cell-based; details: S. aureus, presence versus absence of serum (10% serum)
Description: as §1

[10] = system: Streptococcus pneumoniae; format: cell-based
Description: as §1

[11] = system: Bacillus subtilis; format: cell-based
Description: as §1

[12] = system: Gram-positive pathogens; format: cell-based
Description: as §1

[13] = system: Streptococcus pyrogens; format: cell-based
Description: as §1

[14] = system: Acinetobacter baumannii; format: cell-based
Description: as §1

[15] = system: Pseudomonas aeruginosa; format: cell-based
Description: as §1

[16] = system: Enterococcus faecalis; format: cell-based
Description: as §1

[17] = system: Streptococcus agalactiae; format: cell-based
Description: as §1

SMILES: CCCCCCCCCCCCCC(=O)N[C@H](CO)C(=O)N[C@@H]1C(=O)N[C@H](CCN)C(=O)N[C@@H](CC(=O)O)C(=O)NCC(=O)N[C@H](CC(N)=O)C(=O)N[C@H](CC(=O)O)C(=O)NCC(=O)N[C@@H](Cc2ccc(O)cc2)C(=O)N[C@@H](C(C)C)C(=O)N[C@@H](CCN)C(=O)N[C@@H](Cc2ccccc2)C(=O)O[C@@H]1C [Cilagicin] (Myristoyl-[dS]T[dDab]DG[dN][dD]GYV[Dab]F; ester 2-C)
- colonies that showed more than a 2-fold increase in MIC (2 μg/mL) [1]: never observed
- time-dependent killing curve analysis, kind of action [2]: bactericidal
- reduction of the number of viable bacteria ([2]; after 4 hours): more than four orders of magnitude
- plasma bioavailability [3]: high plasma bioavailability
- maximum change in MIC (increase) ([4]; S. aureus USA300, after 25 days of constant exposure): 1 fold
- cross resistance of bacitracin resistant and amphomycin resistant mutants ([4]; S. aureus mutants raised by serial passage): neither the highly bacitracin resistant mutants nor the highly amphomycin resistant mutants that were generated showed cross resistance
- cell lytic activity (SYTOX fluorescence) [5]: No response was detected
- membrane depolarization (DiSC3(5) fluorescence) [6]: No response was detected
- Cilagicin MIC [7]: 0.125 µg/mL
- Cilagicin MIC [8]: 0.5 µg/mL
- antibacterial activity (MIC) in the presence of serum [9]: significantly suppressed
- MIC [10]: 0.25 µg/mL (≈ 0.17 µM)
- Cilagicin MIC [11]: 2 µg/mL
- MIC [12]: 1 µg/mL (≈ 0.682 µM)
- MICs [12]: ≤ 0.25 µg/mL
- minimum inhibitory concentrations (MIC) [12]: 0.125 to 2 µg/mL
- Cilagicin MIC [13]: 0.125 µg/mL
- MIC [13]: 0.125 µg/mL (≈ 0.0852 µM)
- Cilagicin MIC [14]: 8 µg/mL
- MIC ([14]; A. baumannii (Table 5)): 8 µg/mL (≈ 5.45 µM)
- Cilagicin MIC [15]: >64 µg/mL
- Cilagicin MIC [16]: 0.5 µg/mL
- Cilagicin MIC [17]: 1 µg/mL
- MIC [17]: 1 µg/mL (≈ 0.682 µM)

From patent US20260193295A1, “CILAGICIN COMPOUNDS AND METHODS OF USE THEREOF” (priority 2022, published 2026)
